Test results from publication PMC7827406, “Structure–Activity Relationship (SAR) Study of Spautin-1 to Entail the Discovery of Novel NEK4 Inhibitors” (International Journal of Molecular Sciences, 2021).
Where two headings read alike, the source gives them in different places.

How the values were obtained:
Test in all cases: biochemical
Design in all cases: Eurofins KinaseProfiler full panel at Km ATP, residual kinase activity (%) relative to DMSO
LATS1(h) = biological target: T1, LATS1(h) (Homo sapiens, UniProt O95835)
T1 sequence (O95835 1-1130): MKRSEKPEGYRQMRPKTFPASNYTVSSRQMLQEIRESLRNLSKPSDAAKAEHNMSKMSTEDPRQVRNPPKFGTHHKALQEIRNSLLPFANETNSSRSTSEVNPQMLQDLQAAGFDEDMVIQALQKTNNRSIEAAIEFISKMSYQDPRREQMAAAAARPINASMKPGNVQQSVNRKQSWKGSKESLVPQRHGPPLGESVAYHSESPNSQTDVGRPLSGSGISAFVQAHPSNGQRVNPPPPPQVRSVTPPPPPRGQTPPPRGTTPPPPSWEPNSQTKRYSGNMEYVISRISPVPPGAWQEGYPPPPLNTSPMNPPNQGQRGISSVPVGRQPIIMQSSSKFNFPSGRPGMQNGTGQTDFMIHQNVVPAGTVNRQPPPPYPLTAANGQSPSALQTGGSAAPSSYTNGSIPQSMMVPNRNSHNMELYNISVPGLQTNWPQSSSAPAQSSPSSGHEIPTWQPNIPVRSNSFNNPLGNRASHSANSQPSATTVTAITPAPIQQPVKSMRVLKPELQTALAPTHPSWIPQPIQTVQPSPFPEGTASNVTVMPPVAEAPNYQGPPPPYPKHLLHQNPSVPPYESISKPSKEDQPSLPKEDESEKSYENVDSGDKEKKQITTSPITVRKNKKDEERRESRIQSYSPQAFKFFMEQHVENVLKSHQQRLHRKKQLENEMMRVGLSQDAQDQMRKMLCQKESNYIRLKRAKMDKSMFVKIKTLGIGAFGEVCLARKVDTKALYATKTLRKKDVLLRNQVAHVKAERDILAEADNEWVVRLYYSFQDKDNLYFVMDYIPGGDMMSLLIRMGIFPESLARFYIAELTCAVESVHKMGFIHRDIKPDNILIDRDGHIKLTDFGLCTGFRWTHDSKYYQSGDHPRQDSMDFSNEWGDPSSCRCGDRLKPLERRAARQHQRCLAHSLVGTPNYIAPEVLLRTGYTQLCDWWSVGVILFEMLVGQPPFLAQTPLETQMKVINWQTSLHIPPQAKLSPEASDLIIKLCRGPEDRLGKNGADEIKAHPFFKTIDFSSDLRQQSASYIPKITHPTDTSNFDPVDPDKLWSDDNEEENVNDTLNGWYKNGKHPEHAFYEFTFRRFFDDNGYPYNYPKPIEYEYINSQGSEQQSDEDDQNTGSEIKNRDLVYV
Outline: (§1)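 Two 10 µM single-concentration screens were run: a competition-binding screen, in which DNA-tagged kinase bound to immobilized ligands was quantified by qPCR, and a radiometric activity panel at Km ATP. Each is expressed as residual kinase activity (%).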

NUAK2(h) = biological target: T2, NUAK2(h) (Homo sapiens, UniProt Q9H093)
T2 sequence (Q9H093 1-628): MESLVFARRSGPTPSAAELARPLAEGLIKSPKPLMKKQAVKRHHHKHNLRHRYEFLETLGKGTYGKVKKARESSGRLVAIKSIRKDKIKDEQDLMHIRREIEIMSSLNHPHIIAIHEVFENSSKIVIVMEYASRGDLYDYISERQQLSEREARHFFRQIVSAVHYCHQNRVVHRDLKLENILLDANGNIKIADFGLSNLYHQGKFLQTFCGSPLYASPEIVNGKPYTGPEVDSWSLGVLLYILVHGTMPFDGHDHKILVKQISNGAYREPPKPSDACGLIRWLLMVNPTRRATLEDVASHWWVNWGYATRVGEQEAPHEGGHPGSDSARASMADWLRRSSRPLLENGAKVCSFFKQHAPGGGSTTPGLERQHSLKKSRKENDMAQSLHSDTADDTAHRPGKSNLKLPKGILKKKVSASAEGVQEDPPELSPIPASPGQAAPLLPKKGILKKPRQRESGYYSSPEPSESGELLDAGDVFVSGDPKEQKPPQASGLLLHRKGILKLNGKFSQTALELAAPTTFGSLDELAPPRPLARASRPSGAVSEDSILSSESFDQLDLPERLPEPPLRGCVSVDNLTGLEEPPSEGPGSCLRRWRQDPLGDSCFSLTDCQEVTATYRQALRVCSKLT
Outline: as §1

PRP4(h) = biological target: T3, PRP4(h) (Homo sapiens, UniProt Q13523)
T3 construct: gene PRP4K
T3 sequence (Q13523 whole entry): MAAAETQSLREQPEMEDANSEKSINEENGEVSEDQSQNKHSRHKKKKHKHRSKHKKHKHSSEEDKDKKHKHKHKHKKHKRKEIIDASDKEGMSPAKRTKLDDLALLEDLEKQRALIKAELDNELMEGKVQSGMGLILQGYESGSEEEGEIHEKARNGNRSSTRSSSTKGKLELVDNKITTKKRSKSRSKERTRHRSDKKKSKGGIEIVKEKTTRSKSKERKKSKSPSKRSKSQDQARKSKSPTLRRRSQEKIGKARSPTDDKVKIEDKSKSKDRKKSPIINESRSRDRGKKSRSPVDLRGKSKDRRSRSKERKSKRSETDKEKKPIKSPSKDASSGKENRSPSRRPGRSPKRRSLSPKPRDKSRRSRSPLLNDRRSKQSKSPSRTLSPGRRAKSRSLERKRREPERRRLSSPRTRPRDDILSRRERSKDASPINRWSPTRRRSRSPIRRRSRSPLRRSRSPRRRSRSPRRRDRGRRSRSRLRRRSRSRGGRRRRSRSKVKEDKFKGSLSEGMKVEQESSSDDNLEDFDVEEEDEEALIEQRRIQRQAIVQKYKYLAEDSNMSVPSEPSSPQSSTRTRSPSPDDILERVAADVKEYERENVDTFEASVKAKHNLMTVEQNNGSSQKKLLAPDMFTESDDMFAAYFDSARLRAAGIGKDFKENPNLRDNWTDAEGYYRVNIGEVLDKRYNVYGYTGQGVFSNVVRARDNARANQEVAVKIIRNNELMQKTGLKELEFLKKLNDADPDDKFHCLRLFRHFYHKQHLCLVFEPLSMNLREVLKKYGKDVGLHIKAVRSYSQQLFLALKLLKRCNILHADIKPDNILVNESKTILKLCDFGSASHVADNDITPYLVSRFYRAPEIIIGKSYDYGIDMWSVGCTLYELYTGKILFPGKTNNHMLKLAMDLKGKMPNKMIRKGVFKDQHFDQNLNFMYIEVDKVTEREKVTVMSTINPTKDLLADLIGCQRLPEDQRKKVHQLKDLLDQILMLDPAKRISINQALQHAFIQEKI
Outline: as §1

WNK3(h) = WNK3(h) (Homo sapiens, UniProt Q9BYP7)
Chain of WNK3(h) (Q9BYP7 whole entry): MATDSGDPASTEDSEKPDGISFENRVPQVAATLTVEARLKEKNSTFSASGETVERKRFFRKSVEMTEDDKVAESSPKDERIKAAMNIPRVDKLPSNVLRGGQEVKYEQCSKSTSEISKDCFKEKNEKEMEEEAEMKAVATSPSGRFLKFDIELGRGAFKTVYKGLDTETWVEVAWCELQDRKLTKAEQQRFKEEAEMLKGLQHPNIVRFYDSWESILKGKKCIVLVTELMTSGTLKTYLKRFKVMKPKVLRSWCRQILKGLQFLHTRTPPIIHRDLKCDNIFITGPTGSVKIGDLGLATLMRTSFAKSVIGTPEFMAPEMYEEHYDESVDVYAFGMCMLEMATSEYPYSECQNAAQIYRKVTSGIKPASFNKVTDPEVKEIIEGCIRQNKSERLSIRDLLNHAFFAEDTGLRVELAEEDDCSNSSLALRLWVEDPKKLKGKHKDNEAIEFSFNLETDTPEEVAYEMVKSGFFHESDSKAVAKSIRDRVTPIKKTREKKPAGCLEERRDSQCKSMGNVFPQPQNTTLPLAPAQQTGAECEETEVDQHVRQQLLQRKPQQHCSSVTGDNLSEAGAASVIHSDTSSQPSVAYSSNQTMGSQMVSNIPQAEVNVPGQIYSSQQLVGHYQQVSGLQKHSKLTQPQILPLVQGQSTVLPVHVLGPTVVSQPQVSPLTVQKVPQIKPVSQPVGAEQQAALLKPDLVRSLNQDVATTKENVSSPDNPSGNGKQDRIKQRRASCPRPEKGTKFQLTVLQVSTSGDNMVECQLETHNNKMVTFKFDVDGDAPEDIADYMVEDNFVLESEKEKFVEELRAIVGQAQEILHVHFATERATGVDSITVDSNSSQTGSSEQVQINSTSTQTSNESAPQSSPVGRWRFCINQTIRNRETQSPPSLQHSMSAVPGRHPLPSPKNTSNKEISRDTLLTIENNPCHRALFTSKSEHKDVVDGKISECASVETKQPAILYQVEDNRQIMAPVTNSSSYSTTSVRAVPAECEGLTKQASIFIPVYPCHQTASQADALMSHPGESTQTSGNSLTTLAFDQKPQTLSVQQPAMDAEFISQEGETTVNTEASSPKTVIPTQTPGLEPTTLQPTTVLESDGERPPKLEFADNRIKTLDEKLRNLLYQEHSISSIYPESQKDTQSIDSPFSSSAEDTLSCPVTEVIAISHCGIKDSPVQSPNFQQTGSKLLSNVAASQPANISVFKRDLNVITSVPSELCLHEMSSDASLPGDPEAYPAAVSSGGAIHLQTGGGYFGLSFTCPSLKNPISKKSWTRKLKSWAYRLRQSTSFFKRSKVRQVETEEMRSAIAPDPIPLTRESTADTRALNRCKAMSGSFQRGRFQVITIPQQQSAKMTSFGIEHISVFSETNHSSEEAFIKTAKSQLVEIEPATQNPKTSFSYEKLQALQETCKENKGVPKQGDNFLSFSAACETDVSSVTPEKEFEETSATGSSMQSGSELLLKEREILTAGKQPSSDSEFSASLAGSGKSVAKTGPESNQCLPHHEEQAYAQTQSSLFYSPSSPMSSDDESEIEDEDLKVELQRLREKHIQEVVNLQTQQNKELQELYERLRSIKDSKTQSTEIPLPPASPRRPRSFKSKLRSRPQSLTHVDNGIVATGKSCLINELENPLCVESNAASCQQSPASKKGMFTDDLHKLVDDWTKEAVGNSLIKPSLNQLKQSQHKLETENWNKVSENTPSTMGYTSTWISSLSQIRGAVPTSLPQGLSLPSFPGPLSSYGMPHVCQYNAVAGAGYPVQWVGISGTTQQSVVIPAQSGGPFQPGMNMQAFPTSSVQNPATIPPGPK
Outline: as §1

[1] = read-out: Residual activity (%) Spautin-1 5aa
[2] = read-out: Residual activity (%) 5as
[3] = read-out: Residual activity (%) 5at
[4] = read-out: Residual activity (%) 5ay

Structure (SMILES): Fc1ccc(CNc2ncnc3ccc(F)cc23)cc1 [5aa, 6-Fluoro-N-(4-fluorobenzyl)-4-Quinazolinamine]
- remaining activity at 10 µM (LATS1(h); [1]): 102%
- remaining activity at 10 µM (NUAK2(h); [1]): 121%
- remaining activity at 10 µM (PRP4(h); [1]): 104%
- remaining activity at 10 µM (WNK3(h); [1]): 90%

Structure (SMILES): Fc1ccc(CCNc2ncnc3ccc(F)cc23)cc1 [5as, 6-Fluoro-N-[2-(4-Fluorophenyl)Ethyl]-4-Quinazolinamine]
- remaining activity at 10 µM (LATS1(h); [2]): 79%
- remaining activity at 10 µM (NUAK2(h); [2]): 112%
- remaining activity at 10 µM (PRP4(h); [2]): 105%
- remaining activity at 10 µM (WNK3(h); [2]): 98%

Structure (SMILES): Fc1ccc2ncnc(NCCc3ccc(Cl)cc3)c2c1 [5at, N-[2-(4-Chlorophenyl)Ethyl]-6-Fluoro-4-Quinazolinamine]
- remaining activity at 10 µM (LATS1(h); [3]): 83%
- remaining activity at 10 µM (NUAK2(h); [3]): 117%
- remaining activity at 10 µM (PRP4(h); [3]): 99%
- remaining activity at 10 µM (WNK3(h); [3]): 86%

Structure (SMILES): COc1ccc2ncnc(Nc3cccc(F)c3)c2c1 [5ay, N-(3-Fluorophenyl)-6-Methoxy-4-Quinazolinamine]
- remaining activity at 10 µM (LATS1(h); [4]): 79%
- remaining activity at 10 µM (NUAK2(h); [4]): 110%
- remaining activity at 10 µM (PRP4(h); [4]): 100%
- remaining activity at 10 µM (WNK3(h); [4]): 104%
